From patent US20220031680A1, “Donecopride As Neuroprotective Agent In the Treatment of Neurodegenerative Diseases” (priority 2018, published 2022) come the findings set out here.

Several values for one entry are separate records, joined by “and”; a condition that tells them apart may be missing. Equal entries are not always repeated.

Assay [1] deals with Aβ42. The assay is described as follows: Aβ42 concentration in cerebrospinal fluid of 5×FAD mice. The assay is classed as in vivo, mouse. The following applies: 1 mg/kg twice a week for 3 months; compared to controls. Here is the method:
5×FAD mice received chronic treatments with drugs or vehicle according to 2 different protocols. In each experiment, drugs or vehicle solution were administered i.p. twice a week (1 mg/kg). In “Protocol 1”, mice (n=6-7 mice per group) were treated with compounds for two months, from 2 to 4 months of age. In “Protocol 2”, mice (n=7) were treated with compounds for three months, from 1 month to 4 months of age. At the end of each protocol, mice were anesthetized with a mixture of 100 mg/kg ketamine and 10 mg/kg xylazine in saline solution and perfused transcardially with PBS. Brains were quickly isolated on ice, the olfactory bulbs and cerebellum removed and the two hemispheres divided. One hemisphere was frozen on dry ice and stored at −80° C. for biochemical analysis, while the other was post-fixed in 4% PFA for immunohistochemistry (IHC).
Mice were anesthetized and mounted onto a stereotaxic instrument. The neck skin was cut and subcutaneous tissue and muscles separated with the help of micro-retractors (Fine Science Tools, Heidelberg, Germany). Mice were then laid down so that the head formed an angle of about 135° with the body (Liu and Duff (2008) J. Vis. Exp. 10:960). A capillary tube (Borosilicate glass, B100-75-10, Sutter Instruments, Novato, Calif., USA) was used to punch the dura mater of the cisterna magna. CSF was collected by capillary action and transferred to 0.5 mL microtubes, immediately frozen on dry ice and stored at −80° C. until use. Once thawed, samples were heated at 60° C. for 5 min as described in the international application WO 2008/009868 and analyzed without further freezing-thawing cycles.
ELISA kits from IBL International (Hamburg, Germany) for the dosage of Aβ40 (human amyloid β (1-40) assay kit, #27713) or Aβ42 (human amyloid β (1-42) assay kit, #27719) were used according to the manufacturer's instructions. Reactions were read at 620 nm and 450 nm using an Infinite 2000 luminescence counter. The obtained values were normalized to the protein concentration of each sample, measured using a BCA protein assay (Sigma-Aldrich). […]

For assay [2], the system named is α-syn. The assay is described as follows: α-syn aggregation in TH neurons injured with MPP+. The assay is classed as cell-based, rat. The following applies: MPP+ 4 μM 48 h; 1 h pre-incubation. On the procedure:
The aim of the present study was to investigate the neuroprotective effect of MR36014 and MR33583 (at 4 concentrations) on dopaminergic TH-positive neurons injured with MPP^+. The test compounds were pre-incubated for 1 hour before MPP^+ application (4 μM for 48 h). The neuroprotective effect (survival and neurite network) of test compounds was investigated. In addition, the effect on the cytoplasmic alpha-synuclein accumulation was studied.
Rat dopaminergic neurons were cultured as described by Callizot et al. (2019) PLoS One 14:e0215277 and Visanji et al. (2008) FASEB J. 22:2488-2497. Briefly, pregnant female rat (Wistar) of 15 days of gestation were killed using a deep anesthesia with CO2 chamber and a cervical dislocation. The midbrains obtained from 15-day-old rat embryos (Janvier, France) were dissected under a microscope. […]
Midbrains were dissociated by trypsinisation for 20 min at 37° C. […] Viable cells were counted in a Neubauer cytometer using the trypan blue exclusion test. […]
Briefly, on day 6 of culture, the medium was removed, and fresh medium was added, with or without test compounds and with or without MPP^+ for 48 hours diluted in control medium. 6 wells per condition were assessed. […]
Test compounds were tested in 96-well plate (n=6 culture wells per condition). […] The following conditions were assessed: […]

`COc1cc(N)c(F)cc1C(=O)CCC1CCN(CC2CCCCC2)CC1` [Flucopride]: the “Aβ42 concentration in cerebrospinal fluid (CSF)” value in assay [1] is “not significantly different”.

Consider `COc1cc(N)c(F)cc1C(=O)CCC1CCN(CC2CCCCCC2)CC1` [MR36014], for which the “concentrations reducing accumulation/aggregation of α-syn” value in assay [2] is “all investigated doses”. On to `COc1cc(N)c(Cl)cc1C(=O)CCC1CCN(CC2CCCCC2)CC1` [Donecopride], for which the “Aβ42 concentration in cerebrospinal fluid (CSF)” value in assay [1] was “not significantly different”. With `COc1cc(N)c(F)cc1C(=O)CCC1CCN(CC2CCCC2)CC1` [MR33583], the “concentrations reducing accumulation/aggregation of α-syn” value in assay [2] was 50 nM and 100 nM.
